Assay results reported in PMC9527238, “Glutamate and GABAA receptor crosstalk mediates homeostatic regulation of neuronal excitation in the mammalian brain” (Signal Transduction and Targeted Therapy, 2022).
Like-named read-outs stand apart in the source and are kept apart here.

Tests used:
rat α1β2γ2 GABAARs = target: T1, rat α1β2γ2 GABAARs (Rattus norvegicus, UniProt P62813+P63138); assay: Whole-cell patch clamp of GABA-evoked currents, HEK293 cells expressing wild-type α1β2γ2; assay type: cell-based
T1 construct: expressed in transfected cells; host or cells: HEK293
Experimental: (§1) Co-expression of the α and β subunits is the minimum requirement for a functional recombinant GABAAR expressed in a heterologous cell line such as HEK293, while co-expression of the α, β and γ subunits is required for the recombinant receptor with a full pharmacological profile.[2] We therefore transiently expressed either rat α1β2 or α1β2γ2 subunits in HEK293 cells.
(§2) HEK293 cells were cultured in DMEM (Invitrogen) supplemented with 10% fetal bovine serum. Cells were grown to 40–60% confluence and transiently transfected using Lipofectamine 2000 (Invitrogen) with 1:0.5–1 plasmid/lipid ratio. Cells were transfected with a pBK-CMV expression vector containing a rat recombinant GABAAR α, β or γ subunits. Co-transections were done with a plasmid ratio of 1:1 αβ and 2:2:1 for αβγ subunit combinations, respectively. pcDNA3.1-GFP was also co-transfected along with GABAAR subunits as a transfected marker in order to facilitate the visualization of the transfected cells during electrophysiological experiments. Cells were re-plated on glass coverslips after 15–20 h transfection and were cultured for an additional 15–24 h before whole-cell patch-clamp recordings.
(§3) Whole-cell patch-clamp recordings were performed under voltage-clamp mode using an Axopatch 200B or 1D patch-clamp amplifier (Molecular Devices) on HEK293 cells and cultured neurons. Whole-cell currents were recorded at a holding potential of −60 mV, and signals were filtered at 2 kHz, digitized at 10 kHz (Digidata 1322 A). Recording pipettes (3–5 MΩ) were filled with the intracellular solution that contained (mM): CsCl 140, HEPES 10, Mg-ATP 4, QX-314 5, pH 7.20; osmolarity, 290–295 mOsm. BAPTA (10 mM) was added in the intracellular solution. The coverslips were continuously superfused with the extracellular solution containing (mM): NaCl 140, KCl 5.4, HEPES 10, MgCl2 1.0, CaCl2 1.3, glucose 20, pH 7.4; osmolarity, 305–315 mOsm. […] Dose–response curves were created by fitting data to Hill equation: I = Imax/[1 + (EC50/[A])^n], where I is the current, Imax is the maximum current, [A] is a given concentration of agonist, n is the Hill coefficient. […] All experiments were performed at room temperature.

rat α1β2 GABAARs = target: T2, rat α1β2 GABAARs (Rattus norvegicus, UniProt P62813+P63138); assay: Whole-cell patch clamp of GABA-evoked currents, HEK293 cells expressing α1β2; assay type: cell-based
T2 construct: expressed in transfected cells; host or cells: HEK293
Source text: as §1
HEK293 cells were transiently transfected with rat GABAAR α1/β2 (a–e) or α1/β2/γ2 (f) subunits. Whole-cell voltage-clamp recordings were performed with a chloride-based intracellular recording solution at a holding membrane potential of −60 mV.
as §2, §3

α1β2 GABAARs = target: T3, α1β2 GABAARs (Rattus norvegicus, UniProt P62813+P63138); assay: [3H]glutamate binding assay, plasma membranes of HEK293 cells overexpressing α1 and β2
T3 construct: expressed in transfected cells; host or cells: HEK293
Experimental: For membrane preparation, transfected or non-transfected HEK293 cells were washed twice with cold PBS and harvested by scraping into 5 ml cold PBS. Cells were then centrifuged at 1200 × g for 12 min at 4 °C and medium was removed. The washing procedure was repeated twice. Then the cell pellet was re-suspended into 1 ml of 50 mM Tris-HCl buffer (pH 7.4, with protease inhibitor) and homogenized using syringes with 18-G, 21-G and 23-G needles.
To separate the membrane, the homogenate were centrifuged for 20 min at 20,000 × g at 4 °C. Then the pellet was re-suspended into 1 ml of 50 mM Tris-HCl buffer, pH 7.4 and centrifuged again. After repeating this procedure for one more time, the pellet was re-suspended into 1 ml of 50 mM Tris-HCl buffer, pH 7.4 and the protein concentration was measured.
To conduct the binding assay, 100 µg membrane enriched preparation was incubated with 40 nM [3H]-Glutamate in a total volume of 0.5 ml in 50 mM Tris-HCl buffer, pH 7.4 for 1 h on ice. […] Then the reaction was terminated by quickly filtering the solution on Whatman filter paper and washing by 3.5 ml Tris-HCl buffer. Radioactivity was measured in a Beckman liquid scintillation counter.

[1] = Kainic acid-induced seizure; assay type: in vivo, mouse; conditions: 20 mg/kg i.p.
Experimental: To test the allosteric potentiation of GABAARs by presynaptically released glutamate under certain physiological conditions, we delivered five trains of four pulses of theta-burst stimulation to increase endogenous glutamate released from the presynaptic glutamatergic terminals, and compared its effect on the pharmacologically isolated eIPSCs (following blockade of both AMPAR and NMDAR-mediated EPSCs) in WT and KI mice.
Kainic acid (KA) was dissolved in sterile saline at the concentration of 20 mg/ml. KA (20 mg/kg, i.p.) or same volume of saline as vehicle control was administered by intraperitoneal injection to induce seizures. Diazepam (20 mg/kg, s.c., obtained from Children’s Hospital of Chongqing Medical University) was injected 30 min before the injection of KA. […] All experiments were performed in accordance with approved institutional animal care guidelines.

NMDA receptors = assay: NMDA receptor blockade in cultured hippocampal neurons; assay type: cell-based, rat; conditions: MK-801 10 μM co-applied with NMDA 50 μM through the bath for 3 min
[2] = tested on: GABAAR-mediated currents, WT mice; assay: Whole-cell recording of CA1 neurons, hippocampal slices of WT mice; assay type: cell-based, mouse; conditions: AP5 50 µM
Experimental: (§4) We next determined if glutamate-mediated allosteric potentiation of GABAAR function was impaired in hippocampal slices acutely prepared from postnatal 90-day-old KI mice. Whole-cell recordings of CA1 neurons were performed under voltage clamp configuration at a holding potential of −60 mV.
(§5) Mice were deeply anesthetized with urethane (1.5 g/kg, i.p.) and transcardially perfused with ice cold sucrose hypertonic cutting solution (in mM: KCl 3.0, NaH2PO4.H2O 1.25, NaHCO3 26, Na-vitamin C 0.4, Na-lactate 2.0, Na-pyruvate 2.0, D-glucose 10.0, Sucrose 220, CaCl2 0.1, MgCl2 2, MgSO4 4.0, pH 7.4, 290–300 mOsm/l) prior to decapitation as described previously.[47] After decapitation, the brain was rapidly removed and transferred to the ice cold cutting solution bubbled with 95% O2 and 5% CO2, and acute coronal brain slices (400 μm) were prepared on a Leica vibratome (VT1200S, Germany). All brain slices were placed into a standard artificial cerebral spinal fluid (ACSF) (in mM: NaCl 124, KCl 2.8, NaH2PO4.H2O 1.25, NaHCO3 26, Na-vitamin C 0.4, Na-lactate 2.0, Na-pyruvate 2.0, D-glucose 10.0, CaCl2 2, MgSO4 1.2, pH 7.4, 290–300 mOsm/l) incubated at 35 °C for 2 h prior to recording. Field excitatory postsynaptic potential (fEPSP) recordings were performed under current-clamp mode using HEKA EPC10 patch-clamp amplifier (HEKA Electronic, Lambrecht/Pfalz, Germany). […]

postsynaptic GABAARs = assay: mIPSCs in cultured hippocampal neurons; assay type: cell-based, rat; conditions: AP5 200 μM; TTX 0.5 μM, CNQX 10 μM
Experimental: (§6) GABAAR-mediated inhibitory processes in the CNS include phasic and tonic inhibitions. The phasic inhibition is primarily mediated by the activation of postsynaptic GABAARs and can be evaluated by recording miniature inhibitory postsynaptic currents (mIPSCs; Fig. 2c).
(§7) Cultured hippocampal neurons were prepared from the brains of D18 fetal Wister rats. Tissues were digested with a 0.25% trypsin solution (Invitrogen) for 25 min at 37 °C, and then mechanically dissociated using a fire-polished Pasteur pipette. Next, the cell suspension was centrifuged at 2500 × g for 50 s and the cell pellets were resuspended in DMEM containing 10% Fetal Bovine Serum (FBS; Sigma-Aldrich). Cells were seeded on poly-D-lysine-coated 24-well coverslips at a density of 2.5 × 10^5 cells/well. Cultures were maintained in a humidified incubator with 5% CO2 at 37 °C. After 24 h, plating medium was changed to Neurobasal medium supplemented with B-27 supplement and L-glutamine, and the media changed twice weekly thereafter. […]
(§8) Whole-cell patch-clamp recordings were performed under voltage-clamp mode using an Axopatch 200B or 1D patch-clamp amplifier (Molecular Devices) on HEK293 cells and cultured neurons. Whole-cell currents were recorded at a holding potential of −60 mV, and signals were filtered at 2 kHz, digitized at 10 kHz (Digidata 1322 A). […]

extrasynaptic GABAARs = assay: GABAAR-mediated tonic currents in cultured hippocampal neurons; assay type: cell-based, rat; conditions: prior addition of AP5 200 μM; bicuculline 10 μM
Experimental: as §6, §7, §8

native GABAARs = assay: GABA-evoked whole-cell currents in cultured hippocampal neurons; assay type: cell-based, rat
Experimental: Cultured hippocampal neurons were prepared from the brains of D18 fetal Wister rats. Tissues were digested with a 0.25% trypsin solution (Invitrogen) for 25 min at 37 °C, and then mechanically dissociated using a fire-polished Pasteur pipette. Next, the cell suspension was centrifuged at 2500 × g for 50 s and the cell pellets were resuspended in DMEM containing 10% Fetal Bovine Serum (FBS; Sigma-Aldrich). Cells were seeded on poly-D-lysine-coated 24-well coverslips at a density of 2.5 × 10^5 cells/well. Cultures were maintained in a humidified incubator with 5% CO2 at 37 °C. After 24 h, plating medium was changed to Neurobasal medium supplemented with B-27 supplement and L-glutamine, and the media changed twice weekly thereafter. Cultured neurons were used for electrophysiological recordings between 10–14 days after plating.
as §3

[3] = target: T4, GABAAR-mediated currents, β2E181G KI mice (Mus musculus, UniProt P63137, E206G); assay: Whole-cell recording of CA1 neurons, hippocampal slices of homozygous β2E181G KI mice; assay type: cell-based; conditions: AP5 50 µM; homozygous KI slices
T4 construct: from tissue; host or cells: acute hippocampal slices of homozygous β2E181G knock-in mice (C57BL/6J), CA1 neurons
Experimental: as §4, §5

N[C@H](C(=O)O)[C@@H](OCc1ccccc1)C(=O)O [TBOA, threo-β-Benzyloxyaspartic acid]
GABA currents in presence of ligand, compared with GABA alone (rat α1β2γ2 GABAARs; ligand 100 μM each, GABA 1 μM): 159.9 ± 7.8%
GABA-mediated currents in presence of ligand, compared with currents induced by GABA alone (rat α1β2 GABAARs; ligand 100 μM, GABA 1 μM): 202.8 ± 18.3%

N#Cc1cc2[nH]c(=O)c(=O)[nH]c2cc1[N+](=O)[O-] [CNQX, 6-cyano-7-nitroquinoxaline-2,3-dione]
GABA currents in presence of ligand, compared with GABA alone (rat α1β2γ2 GABAARs; CNQX, concentration not given, GABA 1 μM): 105.6 ± 6.5%
GABA evoked currents in presence of ligand, compared with GABA alone (rat α1β2 GABAARs; CNQX 10 μM, GABA 1 μM): 107.3 ± 6.5%
effect on GABA-evoked currents (rat α1β2 GABAARs; CNQX 1 mM, data not shown): did not affect GABA-evoked currents

[^3H]glutamate
[3H]glutamate binding activity (α1β2 GABAARs; 40 nM [3H]glutamate only, 100 µg membrane, 1 h on ice): 938.2 ± 82.7 CPM

C=C(C)[C@H]1CN[C@H](C(=O)O)[C@H]1CC(=O)O [kainic acid]
GABA currents in presence of ligand, compared with GABA alone (rat α1β2γ2 GABAARs): 188.7 ± 5.5%
GABA-mediated currents in presence of ligand, compared with currents induced by GABA alone (rat α1β2 GABAARs): 388.2 ± 61.0%
latency of kainic acid-induced seizure activity ([1]; WT mice): 189.6 ± 15.2 s
latency of kainic acid-induced seizure activity ([1]; β2E181G KI mice): 161.0 ± 4.0 s

C[C@]12N[C@H](Cc3ccccc31)c1ccccc12 [MK-801]
effect on GABA currents (rat α1β2 GABAARs; MK-801, concentration not given, data not shown): did not affect GABA currents
NMDA receptor blockade (NMDA receptors): complete and long-lasting NMDA receptor blockade

N[C@H](CCCP(=O)(O)O)C(=O)O [AP5, D-2-amino-5-phosphonovaleric acid]
GABA-evoked currents relative to baseline [2]: 193.5 ± 27.0%
GABA currents in presence of ligand, compared with GABA alone (rat α1β2γ2 GABAARs; ligand 100 μM each, GABA 1 μM): 173.3 ± 3.7%
GABA-mediated currents in presence of ligand, compared with currents induced by GABA alone (rat α1β2 GABAARs; ligand 100 μM, GABA 1 μM): 254.9 ± 33.0%
mIPSC amplitude (postsynaptic GABAARs): 36.6 ± 3.6 pA
mIPSC frequency (postsynaptic GABAARs): 0.90 ± 0.29 Hz
tonic current revealed by bicuculline (extrasynaptic GABAARs): 17.28 ± 2.80 pA
amplitude of GABA currents, % of the control (native GABAARs; AP5 100 μM bath, GABA 0.5 μM, TTX and CNQX present): 157.7 ± 9.1%
reversal potential of GABA currents (I-V curve) (native GABAARs; AP5 200 µM, GABA 10 μM): without altering the reversal potential
potentiation of GABA currents after NMDA receptor blockade (native GABAARs; after MK-801 10 μM + NMDA 50 μM for 3 min, AP5 200 μM, GABA 10 μM (Fig. S1a)): reversibly potentiated GABA currents
EC50 (native GABAARs; read-out: EC50 of AP5 enhancement of GABA currents, GABA 0.5 μM): 150 ± 27 µM
[3H]glutamate binding activity in presence of competitor (α1β2 GABAARs; 40 nM [3H]glutamate + 0.4 mM non-radiolabeled competitor): 240.8 ± 36.8 CPM
GABA-evoked currents relative to baseline [3]: 104.6 ± 12.7%

CN[C@H](CC(=O)O)C(=O)O [NMDA, N-methyl-D-aspartate]
GABA currents in presence of ligand, compared with GABA alone (rat α1β2γ2 GABAARs): 171.7 ± 5.4%
GABA-mediated currents in presence of ligand, compared with currents induced by GABA alone (rat α1β2 GABAARs): 267.6%

Cc1onc(O)c1CC(N)C(=O)O (stereo not drawn) [AMPA, α-amino-3-hydroxyl-5-methyl-4-isoxazole-propionate]
GABA currents in presence of ligand, compared with GABA alone (rat α1β2γ2 GABAARs): 165.8 ± 6.2%
GABA-mediated currents in presence of ligand, compared with currents induced by GABA alone (rat α1β2 GABAARs): 339.2 ± 38.0%
